From patent publication US20260027073A1, “USE OF SMALL-MOLECULE COMPOUND HAVING NAPHTHYLAMINE STRUCTURE” (HANGZHOU PHECDAMED CO., LTD., priority 2023, published 2026)

What was measured:
[1] = tested on: CUMS animal model of depression; experiment: CUMS depression model behavioral tests; type: in vivo, C57BL/6J mice; settings: Fluoxetine 30 mg/kg
Description: Depression, also known as depressive disorder, is characterized by significant and long-lasting depressed state of mind as the main clinical feature. The CUMS animal model of depression is a chronic unpredictable animal stress model, which simulates part of the stressor, the external material environmental stimulus, and will cause dysfunctions in the animal organism through different stress stimuli, leading to occurrence of the psychiatric disease depression. […] During this period, carefully observing the status of each mouse. • (6) Basket shaking: Placing the mice in an empty basket and shaking the basket drastically, with the criterion that the mice in the basket are unable to stand firm and sway with the shaking of the basket, for 1 hour. • (7) Olfactory stimulation: Placing anise and other spices in the mice's baskets as a means of olfactory stimulation.
The above seven experiments were conducted randomly during a week as a way to achieve unpredictability with 4 weeks of continuous stimulation.
At the end of the modeling, an open field test experiment was conducted to screen the modeled animals and group the successful modeled animals into five groups: normal group (Control), model control group (Model), positive drug treatment group (Fluoxetine), TJ0113 10 mg/kg treatment group (10 mg/kg), […], TJ0113 30 mg/kg treatment group (30 mg/kg). There were 10 mice in each group, and the administration treatment was administered by gavage, the normal and model control groups were given vehicle treatment, the vehicle was 0.5% CMC-Na, the positive drug fluoxetine hydrochloride was solubilized in saline and administered at a dose of 30 mg/kg, and the TJ0113 vehicle was 0.5% CMC-Na, and administered at a dose of 10 mg/kg and 30 mg/kg, respectively. 4 weeks after the end of the administration, behavioral tests were performed.
• (1) Adaptive feeding: Adaptive feeding with 1% sucrose water and plain water for 2 d before the start of the test, at 1 d, interchanging the sugar water and plain water to avoid positional differences for the animals, and fasting food and water for 1 d after adaption; • (2) Formal test: after fasting food and water, 1% sucrose water and plain water were given to the animals (the initial mass of sugar water and plain water is known), and weighing the remaining mass of sugar water/plain water of each animal after 24 h, and calculating the consumption rates of sugar water A and plain water B; • (3) Data analysis: sugar water preference rate=(A/A+B)×100%.
• (1) adapting to the environment: placing the animals in the test environment for 60 min to adapt to the environment before the test; • (2) Formal test: fixing the rear 1/3 of the mouse tail with tape and suspending on the stand of the experimental apparatus, with the head 15 cm from the bottom; • (3) starting timing camera, and stopping after 6 min, and recording the immobility time of the mice within 4 min; • (4) At the end of the test, using 75% alcohol to wipe the bottom and inner wall of the chamber.
• (1) adapting to the environment: placing the animals in the test environment for 60 min to adapt to the environment before the test; • (2) Formal test: placing the animals to be tested in the middle of the open field, and using the ANY-Maze software to collect the data, the test time is 10 min, and the feces and urine must be removed at the end of each round and disinfected and wiped dry with 75% alcohol; • (3) Analysis of results: total moved distance and average speed during the activity, time spent in the center area and time spent in the corner area.

[2] = tested on: tinnitus model mice; experiment: Sodium salicylate-induced tinnitus; type: in vivo, C57BL/6 mice; settings: 8 kHz and 16 kHz noise; 7.5, 15, 30 mg/kg, dose-dependence; vs model group; FIG. 85
Method: 7-week-old C57BL/6 male mice without tinnitus were screened for tinnitus-free mice using the acoustic startle (AS) response and gap pre-pulse inhibition of the acoustic startle (GPIAS). The mice were randomly divided into five groups, normal control group (normal, n=10), model control group (Control, n=10), TJ01-013 7.5 mg/kg treatment group (7.5 mg/kg, n=10), TJ01-013 15 mg/kg treatment group (15 mg/kg, n=10), and TJ01-013 30 mg/kg treatment group (30 mg/kg, n=10). Except for the normal control group, all the other groups were injected intraperitoneally with 450 mg/kg sodium salicylate to construct the model, in which the normal control group was injected intraperitoneally with the corresponding volume of saline, and the administration treatment was started on the day of modeling, in which the normal control group and the model control group were administrated vehicle (0.5% CMC-Na) by gavage, and the TJ01-013 treatment group was given the treatment of TJ01-013 with the corresponding concentration of TJ01-013 in a volume of 10 ml/kg, and the acoustic startle was measured again 3 hours after the last dose after 4 consecutive days of administration. Behavioral test, AS response paired with GPLAS response was the behavioral experiment to detect the presence of tinnitus. […] The output of the platform is amplified, sampled, stored in a computer, and analyzed offline. […]

SMILES: O=C(O)C[S+]([O-])c1cc(NS(=O)(=O)c2ccc(Br)cc2)c2ccccc2c1O (stereo not drawn) [I-1]
- average movement speed, open field ([1]; TJ0113 10 mg/kg and 30 mg/kg, FIG. 61): significantly increased
- sugar water preference ([1]; TJ0113 30 mg/kg, gavage, FIG. 57): significantly increased
- time in despair (immobility), tail-hanging experiment ([1]; TJ0113 30 mg/kg, FIG. 58): significantly decreased
- distance moved, open field ([1]; TJ0113 30 mg/kg, FIG. 59): significantly increased
- time in the edge area of the open field ([1]; TJ0113 30 mg/kg, FIG. 60): significantly decreased
- AS response amplitude ratios (GPIAS) [2]: decreased significantly
